Article PMC10045301, “The Role of Pyrazolo[3,4-d]pyrimidine-Based Kinase Inhibitors in The Attenuation of CCl4-Induced Liver Fibrosis in Rats” (Antioxidants, 2023)
Read-outs that look alike come from different tables or passages of the source.

Key:
[1] = system: CCl4-induced liver fibrosis in male Sprague–Dawley rats; test: Therapeutic model treated after induction of CCl4 liver fibrosis; assay type: in vivo, rat; details: for redox status (MDA, GSH, SOD in liver homogenate): oral daily weeks 7-12 after CCl4, compared to Clx
Experimental: (§1) Ninety-eight healthy adult Sprague–Dawley male rats with an average weight of 150 ± 20 g were obtained from the animal facility at the Institute of Graduate Studies and Research, Alexandria University, Egypt. Animals were provided with a balanced commercial diet ad libitum and adapted for two weeks prior to the experiment. All animals were sacrificed under IP thiopental anesthesia (50 mg/kg) 48 h after the last treatment.
(§2) Blood samples were collected using cardiac puncture in Li-heparin tubes and centrifuged at 2000× g for 10 min to obtain the plasma. Then, the determination of hepatic biomarkers and renal profile was performed according to kits purchased from Roche Diagnostics, USA, using a Roche/Hitachi analyzer (cobas c 311, cobas c 501/502).
Rats were sacrificed by exsanguination following blood sample collection. The livers were excised, rinsed with cold saline, and dried on filter paper. A portion of each excised liver was put in 10% formalin solution, and then embedded in paraffin and sliced into 4–5 µm sections for histological evaluation. Another part of each liver was snap frozen and stored at −80 °C for later analyses of markers. The remaining tissue was stored in RNAlater solution (Qiagen, Germany, Mat. No. 1018087, lot no. 148052467) for qRT-PCR.
Sections from formalin-fixed paraffin-embedded (FFPE) liver tissues were stained with hematoxylin and eosin and Masson trichrome stain to evaluate liver necrosis and fibrosis. The scores of liver fibrosis degree were evaluated according to a 4-tiered scoring system following the criteria: score 0 = absent fibrosis where scanty fibrous tissue is seen only in portal tracts, score 1 = minimal fibrosis (expanded portal tracts with short fibrous septea may be extending from portal tracts), score 2 = mild fibrosis (long fibrous septea is extending from portal tracts with occasional bridging to other portal tracts or to central veins), score 3 = moderate fibrosis (frequent portal to portal or to central vein bridging with infrequent pseudolobule formation), and score 4 = severe fibrosis (nodular liver with evident pseudolobule formation). For collagen morphological quantification, multiple random pictures of the trichrome-stained section were taken using a microscope-adopted camera at ×400 power. The collagen-positive area stained in blue was evaluated using ImageJ software and then calculated as a percentage of the total field area. At least eight fields were assessed and the mean value was then calculated.
Four-micron sections were cut and mounted on positively charged slides. They were stained with smooth muscle actin (SMA) monoclonal primary antibody (Dako, Denmark; CodeIR611, lot no. 41247585) using Dako auto Stainer (autostainer Link 48). A positive control (leiomyoma) was used in each run. Immune-stained slides were assessed, and ten high power fields of each section were photographed using a Leica camera. Photos were analyzed using ImageJ software to record the immune-positive area (seen as brown staining) in each photo. Then, the positively stained area percentage was calculated as a mean of the 10 examined photos for each rat.
Protein content determination was performed according to Bradford using bovine serum albumin as a standard. A volume of 5 μL of each sample and standard was first added to each well then 250 μL of Ready-To-Use Coomassie Blue G-250 Based Reagent (Thermo Scientific, Waltham, MA, USA; Prod no. 23200, lot no. UE285518) was added. The microplate was put on the shaker for 30 s and then incubated for 10 min at RT. Absorbance was read at […] using a microplate reader.
The malondialdehyde (MDA) level was estimated using the thiobarbituric acid method as previously described. Liver glutathione was estimated using a colorimetric kit (Biodiagnostics, Egypt; catalog no. GR 25 11) according to the method of Beutler et al.. […]

[2] = system: hepatocellular carcinoma cell line (HepG2); test: Cytotoxicity MTT assay; assay type: cell-based; details: human, 24 h
Experimental: (§3) MTT assay was used to estimate cell viability potential for 24 h using hepatocellular carcinoma cell line (HepG2) as previously reported. Calculation of the relative cell viability percentage was performed following the equation: % Relative cell viability = (Absorbance of treated samples/Absorbance of untreated sample) × 100.

Cytotoxicity MTT assay = assay type: cell-based; details: human, HepG2 cells (hepatocellular carcinoma cell line), HepG2, MTT, mean ± SEM, n = 3
Experimental: as §3

COX-1 = molecular target: T1, COX-1 (Ovis aries, UniProt P05979); test: In vitro COX-1 inhibition assay (Cayman colorimetric COX (ovine) inhibitor screening kit); assay type: biochemical; details: mean ± SEM, n = 3
T1 construct: purchased Cayman Chemicals, Ann Arbor, MI, USA 560131
T1 sequence (P05979 25-600): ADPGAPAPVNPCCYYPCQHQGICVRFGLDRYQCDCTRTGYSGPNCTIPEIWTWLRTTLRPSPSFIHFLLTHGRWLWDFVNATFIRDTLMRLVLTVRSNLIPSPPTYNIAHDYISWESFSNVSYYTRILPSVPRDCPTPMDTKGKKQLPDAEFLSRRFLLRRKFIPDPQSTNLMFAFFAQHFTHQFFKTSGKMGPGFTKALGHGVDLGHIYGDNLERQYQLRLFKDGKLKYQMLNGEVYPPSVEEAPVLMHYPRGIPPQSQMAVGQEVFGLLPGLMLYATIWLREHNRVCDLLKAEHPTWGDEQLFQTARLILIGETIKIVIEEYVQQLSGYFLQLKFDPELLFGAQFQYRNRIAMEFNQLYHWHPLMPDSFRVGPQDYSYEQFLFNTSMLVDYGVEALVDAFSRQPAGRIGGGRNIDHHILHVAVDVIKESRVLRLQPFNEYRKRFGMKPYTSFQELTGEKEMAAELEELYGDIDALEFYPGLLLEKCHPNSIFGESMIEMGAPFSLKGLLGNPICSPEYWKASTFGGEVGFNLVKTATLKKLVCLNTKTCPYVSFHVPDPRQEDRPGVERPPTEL

[3] = system: healthy adult Sprague–Dawley male rats; test: In vivo toxicity study, 6 weeks oral daily; set-up: species or system rat; details: plasma, oral daily 6 weeks, dose equimolar to celecoxib 20 mg/kg; mean ± SEM, n = 6
Experimental: as §1
as §2, with “501/502). […]” for “501/502).”

induced liver fibrosis [4] = details: cited from earlier work
induced liver fibrosis [5] = details: injected subcutaneously 3.6 µL/day, mice models; cited from earlier work
[6] = liver tissue homogenate, after CCl4

SMILES | redox status (MDA, GSH, SOD in liver homogenate) [1] | Safety Index (SI) [2] | IC50 at 24 h (Cytotoxicity MTT assay) [µM] | IC50 (COX-1) [µM] | ALP [3] [U/L] | ALT [3] [U/L] | Albumin [3] [g/dL] | Cholesterol [3] [mg/dL] | Creatinine [3] [mg/dL] | Total Bilirubin [3] [mg/dL] | Triglycerides [3] [mg/dL] | AST [3] [U/L] | also measured
COc1ccc(/C=N/Nc2ncnc3c2cnn3-c2ccccc2)cc1OC [Compound D2] | best enhancement | 3349.0 | 344.95 ± 0.3 | 8.5 ± 0.04 | 154.16 ± 10.92 | 39.66 ± 2.13 | 3.78 ± 0.12 | 67 ± 6.47 | 0.37 ± 0.01 | 0.071 ± 0.01 | 61.83 ± 7.11 |  | hepatic mRNA expression of MMP-9 ([1]; after CCl4 and treatment, vs model and control): more significant reduction, reaching a low MMP-9 level near that of the control group; reduction of TGF-β compared to celecoxib ([1]; hepatic mRNA, after CCl4 and treatment): more significant than celecoxib; proinflammatory and profibrogenic cytokines (TNF-α protein, TGF-β and IL-6 gene expression) ([1]; liver, after CCl4 and treatment): decreased considerably reaching the control level; severity of fibrosis (architecture, fibrotic score, collagen- and α-SMA-positive areas, α-SMA and COL1A1 mRNA) ([1]; oral daily weeks 7-12 after 6 weeks CCl4, vs model and Clx group): best effect; restoration of increased plasma ALT and AST ([1]; plasma, after CCl4 and treatment): more significant
COc1cc(/C=N/Nc2ncnc3c2cnn3-c2ccccc2)cc(OC)c1OC [Compound D3] |  | 4042.7 | 356.5 ± 2.9 | 11.5 ± 0.05 | 123.16 ± 4.12 | 37.83 ± 2.45 | 3.86 ± 0.12 | 62.33 ± 1.68 | 0.42 ± 0.02 | 0.076 ± 0.006 | 64 ± 8.01 | 147.33 ± 9.81 | MDA level compared to Clx [1, 6]: significantly better that Clx; SOD compared to Clx [1, 6]: equal to it; reduced GSH compared to Clx [1, 6]: worse
COc1ccc(/C=N/Nc2ncnc3c2cnn3-c2ccccc2)cc1 [Compound D1] | no significance difference to Clx treatment | 2745.9 | 370.7 ± 0.089 | 7.5 ± 0.09 | 159.5 ± 7.48 | 49.66 ± 4.99 | 3.9 ± 0.12 | 71.66 ± 7 | 0.36 ± 0.03 | 0.073 ± 0.004 | 67 ± 5.42 | 139.5 ± 7.78 | 
Cc1ccc(-c2cc(C(F)(F)F)nn2-c2ccc(S(N)(=O)=O)cc2)cc1 [Celecoxib, celecoxib, reference compound] |  |  | 144.6 ± 1.08 |  | 138.66 ± 13.40 | 42 ± 3.33 | 3.73 ± 0.06 | 52.5 ± 2.21 | 0.35 ± 0.01 | 0.084 ± 0.006 | 53 ± 7.11 | 147.5 ± 18.65 | effect on induced liver fibrosis (induced liver fibrosis [4]; 15 mg/kg/day orally, rat models): no effect; effect on induced liver fibrosis (induced liver fibrosis [4]; 20 mg/kg/day orally): potentiality in the attenuation of induced liver fibrosis; effect on induced liver fibrosis (induced liver fibrosis [5]): no effect
